Measured values reported in PubChem BioAssay AID328 (DTP/NCI, 2004).
Several values for one entry are separate records, joined by “and”; a condition that tells them apart may be missing. Equal values may be shown once. Toxic doses and inconclusive results are not listed.

Test system: BDF1 mice, P388 leukemia ip, median survival T/C
Experiment: NCI In Vivo Anticancer Drug Screen. Data for tumor model P388 Leukemia (intraperitoneal) in B6D2F1 (BDF1) mice
Settings: endpoint: median survival time, higher = longer survival
How it was run: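 Read-out is survival of treated animals expressed relative to the vehicle group, as a T/C ratio.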

[1] = dose: 100.0 mg/kg/injection, schedule: Q04DX002 (ip), vehicle: saline with Tween-80
[2] = dose: 400.0 mg/kg/injection, schedule: Q04DX002 (ip), vehicle: saline with Tween-80
[3] = dose: 100.0 mg/kg/injection, schedule: Q04DX003 (ip), vehicle: saline
[4] = dose: 200.0 mg/kg/injection, schedule: Q04DX003 (ip), vehicle: saline
[5] = dose: 0.09 mg/kg/injection, schedule: Q01DX009 (ip), vehicle: saline
[6] = dose: 0.78 mg/kg/injection, schedule: Q01DX009 (ip), vehicle: saline
[7] = dose: 1.56 mg/kg/injection, schedule: Q01DX009 (ip), vehicle: saline
[8] = dose: 3.12 mg/kg/injection, schedule: Q01DX009 (ip), vehicle: saline
[9] = dose: 12.5 mg/kg/injection, schedule: Q01DX009 (ip), vehicle: saline
[10] = dose: 50.0 mg/kg/injection, schedule: Q04DX003 (ip), vehicle: saline
[11] = dose: 100.0 mg/kg/injection, schedule: Q01DX009 (ip), vehicle: saline
[12] = dose: 400.0 mg/kg/injection, schedule: Q04DX003 (ip), vehicle: saline

`FC1(F)C(F)(F)C(Cl)(Cl)C1(Cl)Cl` was tested, and the T/C (dose: 75.0 mg/kg/injection, schedule: Q01DX001 (ip), vehicle: saline) was 100 % of control, the T/C (dose: 150.0 mg/kg/injection, schedule: Q01DX001 (ip), vehicle: saline) was 109 % of control and the T/C (dose: 300.0 mg/kg/injection, schedule: Q01DX001 (ip), vehicle: saline) was 104 % of control.
For `CCOC(=O)/C(=C\c1ccccc1)O/C(=C/c1ccccc1)C(=O)OCC`, the T/C [1] was 89 % of control and the T/C [2] was 93 % of control.
In the case of `CC(=O)OCC(OC(C)=O)C(OC(C)=O)C(C#N)OC(C)=O` (stereo not drawn), the T/C (dose: 50.0 mg/kg/injection, schedule: Q04DX003 (ip), vehicle: saline with Tween-80) is reported as 95 % of control and the T/C (dose: 100.0 mg/kg/injection, schedule: Q04DX003 (ip), vehicle: saline with Tween-80) is reported as 95 % of control.
`CCNC(C)(C)C(=O)c1ccco1` was tested, and the T/C [3] was 100 % of control and the T/C [4] was 100 % of control.
With `Cc1ccc(NCC(O)CN2CCN(CC(O)CNc3ccc(C)cc3)CC2)cc1` (stereo not drawn) the T/C (dose: 100.0 mg/kg/injection, schedule: Q01DX001 (ip), vehicle: Klucel (hydroxypropylcellulose) (HPC)) was 104 % of control, the T/C (dose: 200.0 mg/kg/injection, schedule: Q01DX001 (ip), vehicle: Klucel (hydroxypropylcellulose) (HPC)) was 100 % of control and the T/C (dose: 400.0 mg/kg/injection, schedule: Q01DX001 (ip), vehicle: Klucel (hydroxypropylcellulose) (HPC)) was 86 % of control.
For `CN(C)c1ccc(C(=C2C=CC(=[N+](C)C)C=C2)c2ccccc2Cl)cc1`, the T/C (dose: 5.0 mg/kg/injection, schedule: Q01DX010 (ip), vehicle: saline) was 110 % of control.
In the case of `COc1ccc2c(c1)C1CN(Cc3ccccc31)C2` (stereo not drawn), the T/C (dose: 50.0 mg/kg/injection, schedule: Q01DX001 (ip), vehicle: saline with Tween-80) is reported as 96 % of control, the T/C (dose: 100.0 mg/kg/injection, schedule: Q01DX001 (ip), vehicle: saline with Tween-80) is reported as 99 % of control and the T/C (dose: 200.0 mg/kg/injection, schedule: Q01DX001 (ip), vehicle: saline with Tween-80) is reported as 89 % of control.
With `COc1cc2c(cc1OC)C1c3cc(OC)c(OC)cc3CC(=O)N1CC2` (stereo not drawn) the T/C [5] was 110 % of control, the T/C (dose: 0.39 mg/kg/injection, schedule: Q01DX009 (ip), vehicle: saline) was 88 % of control and the T/C [6] was 98 % of control. For the same compound, the T/C [7] was 99 % of control, the T/C [8] was 100 % of control and the T/C [9] was 108 % of control. For the same compound, the T/C [10] was 102 % of control, the T/C [11] was 92 % of control and the T/C [3] was 99 % of control. The T/C [4] was 102 % of control and the T/C [12] was 93 % of control.
With `Cn1c2c(sc1=O)CCC2` the T/C [10] was 100 % of control, the T/C [3] was 87 % of control and the T/C [4] was 100 % of control.
In the case of `CC1(C#N)CC(C#N)Nc2ccccc2N1` (stereo not drawn), the T/C (dose: 100.0 mg/kg/injection, schedule: Q01DX001 (ip), vehicle: saline) is reported as 104 % of control, the T/C (dose: 200.0 mg/kg/injection, schedule: Q01DX001 (ip), vehicle: saline) is reported as 91 % of control and the T/C (dose: 400.0 mg/kg/injection, schedule: Q01DX001 (ip), vehicle: saline) is reported as 100 % of control.
In the case of `COCn1cc(C(N)=O)c(=O)c2c(N)nc(SC)nc21`, the T/C [1] is reported as 90 % of control and the T/C [2] is reported as 96 % of control.
`c1ccc([P+](c2ccccc2)(c2ccccc2)c2ccccc2)cc1` was tested, and the T/C (dose: 0.06 mg/kg/injection, schedule: Q01DX009 (ip), vehicle: saline) was 116 % of control, the T/C [5] was 122 % of control and the T/C (dose: 0.13 mg/kg/injection, schedule: Q01DX009 (ip), vehicle: saline) was 100 % of control. For the same compound, the T/C (dose: 0.2 mg/kg/injection, schedule: Q01DX009 (ip), vehicle: saline) was 100 % of control, the T/C (dose: 0.3 mg/kg/injection, schedule: Q01DX009 (ip), vehicle: saline) was 104 % of control and the T/C (dose: 0.4 mg/kg/injection, schedule: Q01DX009 (ip), vehicle: saline) was 150 % of control. For the same compound, the T/C (dose: 0.41 mg/kg/injection, schedule: Q01DX009 (ip), vehicle: saline) was 165 % of control, the T/C (dose: 0.44 mg/kg/injection, schedule: Q01DX009 (ip), vehicle: saline) was 120 % of control and the T/C (dose: 0.62 mg/kg/injection, schedule: Q01DX009 (ip), vehicle: saline) was 150 % of control and 163 % of control and 170 % of control. For the same compound, the T/C (dose: 0.66 mg/kg/injection, schedule: Q01DX009 (ip), vehicle: saline) was 171 % of control, the T/C (dose: 0.67 mg/kg/injection, schedule: Q04DX003 (ip), vehicle: saline) was 118 % of control and the T/C (dose: 0.93 mg/kg/injection, schedule: Q01DX009 (ip), vehicle: saline) was 150 % of control and 165 % of control. For the same compound, the T/C (dose: 1.0 mg/kg/injection, schedule: Q01DX009 (ip), vehicle: Klucel (hydroxypropylcellulose) (HPC)) was 155 % of control, the T/C (dose: 1.0 mg/kg/injection, schedule: Q01DX009 (ip), vehicle: saline) was 180 % of control and the T/C (dose: 1.35 mg/kg/injection, schedule: Q04DX003 (ip), vehicle: saline) was 122 % of control. For the same compound, the T/C (dose: 1.5 mg/kg/injection, schedule: Q01DX009 (ip), vehicle: Klucel (hydroxypropylcellulose) (HPC)) was 158 % of control, the T/C (dose: 1.5 mg/kg/injection, schedule: Q01DX009 (ip), vehicle: saline) was 154 % of control and 164 % of control and the T/C (dose: 2.0 mg/kg/injection, schedule: Q01DX009 (ip), vehicle: Klucel (hydroxypropylcellulose) (HPC)) was 157 % of control and 163 % of control. The T/C (dose: 2.25 mg/kg/injection, schedule: Q01DX009 (ip), vehicle: saline) was 164 % of control, the T/C (dose: 3.2 mg/kg/injection, schedule: Q01DX009 (ip), vehicle: Klucel (hydroxypropylcellulose) (HPC)) was 175 % of control and the T/C (dose: 4.0 mg/kg/injection, schedule: Q01DX009 (ip), vehicle: Klucel (hydroxypropylcellulose) (HPC)) was 164 % of control. For the same compound, the T/C (dose: 4.0 mg/kg/injection, schedule: Q04DX003 (ip), vehicle: saline) was 158 % of control and 165 % of control and the T/C (dose: 7.5 mg/kg/injection, schedule: Q01DX009 (ip), vehicle: Klucel (hydroxypropylcellulose) (HPC)) was 89 % of control and 100 % of control.
For `[N-]=[N+]=NCC(=O)NCc1cnccn1`, the T/C [9] was 116 % of control, the T/C (dose: 25.0 mg/kg/injection, schedule: Q01DX009 (ip), vehicle: saline) was 116 % of control and the T/C [11] was 106 % of control. For the same compound, the T/C [3] was 109 % of control, the T/C (dose: 200.0 mg/kg/injection, schedule: Q01DX009 (ip), vehicle: saline) was 116 % of control and the T/C [4] was 108 % of control. For the same compound, the T/C (dose: 400.0 mg/kg/injection, schedule: Q01DX009 (ip), vehicle: saline) was 119 % of control and the T/C [12] was 109 % of control.
`CN(C)c1ccc(C(/C=N\O)(c2ccc(N(C)C)cc2)c2ccc(N(C)C)cc2)cc1` was tested, and the T/C (dose: 100.0 mg/kg/injection, schedule: Q04DX003 (ip), vehicle: Klucel (hydroxypropylcellulose) (HPC)) was 104 % of control, the T/C (dose: 200.0 mg/kg/injection, schedule: Q04DX003 (ip), vehicle: Klucel (hydroxypropylcellulose) (HPC)) was 100 % of control and the T/C (dose: 400.0 mg/kg/injection, schedule: Q04DX003 (ip), vehicle: Klucel (hydroxypropylcellulose) (HPC)) was 109 % of control.
For `S=C(NNc1ccccc1)Nc1ccccc1`, the T/C (dose: 25.0 mg/kg/injection, schedule: Q01DX009 (ip), vehicle: Klucel (hydroxypropylcellulose) (HPC)) was 106 % of control, the T/C (dose: 50.0 mg/kg/injection, schedule: Q01DX009 (ip), vehicle: Klucel (hydroxypropylcellulose) (HPC)) was 101 % of control and the T/C (dose: 100.0 mg/kg/injection, schedule: Q01DX009 (ip), vehicle: Klucel (hydroxypropylcellulose) (HPC)) was 96 % of control.
For `Nc1ccc(CCc2ccccc2)cc1`, the T/C (dose: 12.5 mg/kg/injection, schedule: Q01DX009 (ip), vehicle: saline with Tween-80) was 122 % of control, the T/C (dose: 25.0 mg/kg/injection, schedule: Q01DX009 (ip), vehicle: saline with Tween-80) was 100 % of control and the T/C (dose: 50.0 mg/kg/injection, schedule: Q01DX009 (ip), vehicle: saline with Tween-80) was 109 % of control. The T/C (dose: 56.25 mg/kg/injection, schedule: Q04DX003 (ip), vehicle: saline with Tween-80) was 108 % of control, the T/C (dose: 75.0 mg/kg/injection, schedule: Q01DX009 (ip), vehicle: saline with Tween-80) was 118 % of control and the T/C (dose: 112.5 mg/kg/injection, schedule: Q04DX003 (ip), vehicle: saline with Tween-80) was 112 % of control.
`CC(=O)[O][Hg][c]1c(N)c(C)cc(C)c1F` was tested, and the T/C [6] was 93 % of control, the T/C [7] was 95 % of control and the T/C [8] was 93 % of control. The T/C (dose: 6.25 mg/kg/injection, schedule: Q01DX009 (ip), vehicle: saline) was 95 % of control and the T/C [9] was 95 % of control.
